This experiment concerns the target MAGL (Homo sapiens (Human), UniProt Q99685). The experiment can be described thus: In vitro competitive activity-based protein profiling (human prefrontal cortex membrane fractions, FP-Rh probe), MAGL band. The conditions noted are these: read-out: MAGL IC50 (μM) (human); human prefrontal cortex membrane fractions.
Sequence of MAGL (Q99685 whole entry): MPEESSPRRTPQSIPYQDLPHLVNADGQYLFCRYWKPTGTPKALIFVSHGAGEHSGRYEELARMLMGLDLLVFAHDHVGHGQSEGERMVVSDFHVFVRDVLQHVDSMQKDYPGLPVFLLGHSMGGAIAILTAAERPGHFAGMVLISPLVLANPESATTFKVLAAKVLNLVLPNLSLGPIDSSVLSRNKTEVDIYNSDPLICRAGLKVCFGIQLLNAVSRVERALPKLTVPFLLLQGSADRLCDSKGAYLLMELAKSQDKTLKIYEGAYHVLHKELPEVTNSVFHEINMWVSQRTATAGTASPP
Protocol: Biological Evaluation In Vitro Competitive Activity-Based Protein Profiling.
Proteomes (mouse brain membrane fraction for mouse assays; human prefrontal cortex membrane fractions for human assays) (50 mL, 1.0 mg/mL total protein concentration) were preincubated with varying concentrations of inhibitors at 37° C. After 30 min, FP-Rh (1.0 mL, 50 mM in DMSO) was added and the mixture was incubated for another 30 min at 37° C. Reactions were quenched with SDS loading buffer (15 μL-4×) and run on SDS-PAGE.
The IC50 is the concentration that inhibits the measured activity by half. With `CC(C)c1cccc(O[C@H]2C[C@@H]3CN(C(=O)n4ccc(C(=O)O)n4)C[C@@H]3C2)c1` [Example 220, 1-(trans-5-(3-isopropylphenoxy)-octahydrocyclopenta-[c]pyrrole-2-carbonyl)-1H-pyrazole-3-carboxylic acid], the half-maximal inhibitory concentration (IC50) was < 0.1 µM.
In the case of `NC(=O)c1ccn(C(=O)N2CC3CN(Cc4ccc(C5(O)CCOCC5)cc4C(F)(F)F)CC3C2)n1` (centres unmarked) [Example 396, 1-(5-(4-(4-hydroxytetrahydro-2H-pymn-4-yl)-2-(trifluoromethyl)-benzyl)-octahydropyrrolo-[3,4-c]pyrrole-2-carbonyl)-1H-pyrazole-3-carboxamide] it was < 0.1 µM; in that of `CN(Cc1cc(Cl)ccc1C(F)(F)F)C1CCN(C(=O)n2ccc(C(=O)O)n2)CC1` [Example 81, 1-(4-((5-chloro-2-(trifluoromethyl)-benzyl)-(methyl)amino)-piperidine-1-carbonyl)-1H-pyrazole-3-carboxylic acid], < 0.1 µM; in that of `O=C(O)c1ccn(C(=O)N2C[C@H]3C[C@H](OCc4cccc(C(F)(F)F)c4)C[C@H]3C2)n1` [Example 157, 1-(trans-5-((3-(trifluoromethyl)-benzyl)oxy)-octahydrocyclopenta-[c]pyrrole-2-carbonyl)-1H-pyrazole-3-carboxylic acid], < 0.1 µM.
For `C[C@@H]1CN(Cc2cccc(OCC(C)(C)O)c2Cl)CCN1C(=O)n1ccc(C(N)=O)n1` [Example 216, (R)-1-(4-(2-chloro-3-(2-hydroxy-2-methylpropoxy)-benzyl)-2-methylpiperazine-1-carbonyl)-1H-pyrazole-3-carboxamide] the value was < 0.1 µM; for `O=C(O)c1ccn(C(=O)N2CCN(Cc3ccc(C(F)(F)F)cc3N3CC[C@@H](O)C3)CC2)n1` [Example 333, (R)-1-(4-(2-(3-hydroxypyrrolidin-1-yl)-4-(trifluoromethyl)-benzyl)-piperazine-1-carbonyl)-1H-pyrazole-3-carboxylic acid], < 0.1 µM; for `O=C(O)c1ccn(C(=O)N2C[C@H]3C[C@H](Oc4ccc(Cl)c(-c5nccs5)c4)C[C@H]3C2)n1` [Example 318, 1-(trans-5-(4-chloro-3-(thiazol-2-yl)phenoxy)-octahydrocyclopenta-[c]pyrrole-2-carbonyl)-1H-pyrazole-3-carboxylic acid], < 0.1 µM.
In the case of `O=C(O)c1ccn(C(=O)N2CCC(OCc3cc(Cl)cc(Oc4ccc(Cl)cc4)c3)CC2)n1` [Example 27, 1-(4-((3-Chloro-5-(4-chlorophenoxy)benzyl)oxy)piperidine-1-carbonyl)-1H-pyrazole-3-carboxylic Acid] it was < 0.1 µM.
As for `O=C(O)c1ccn(C(=O)N2CCC3(CCN(Cc4cc(Cl)cc(C(F)(F)F)c4)C3)CC2)n1` [Example 72, 1-(2-(3-chloro-5-(trifluoromethyl)-benzyl)-2,8-diazaspiro[4.5]-decane-8-carbonyl)-1H-pyrazole-3-carboxylic acid], the IC50 is < 0.1 µM.
In the case of `O=C(O)c1nn(C(=O)N2CCN(Cc3ccc(C(F)(F)F)cc3N3CCCC3)CC2)cc1Cl` [Example 443, 4-chloro-1-(4-(2-(pyrrolidin-1-yl)-4-(trifluoromethyl)-benzyl)-piperazine-1-carbonyl)-1H-pyrazole-3-carboxylic acid] it was < 0.1 µM.
For the compound `COc1cc(-c2ccccc2)ccc1CN1CCN(C(=O)n2ccc(C(=O)O)n2)[C@H](C)C1` [Example 283, (R)-1-(4-((3-methoxy-[1,1′-biphenyl]-4-yl)methyl)-2-methylpiperazine-1-carbonyl)-1H-pyrazole-3-carboxylic acid], the IC50 is < 0.1 µM.
In the case of `CC(C)COc1cccc(O[C@H]2C[C@@H]3CN(C(=O)n4ccc(C(=O)O)n4)C[C@@H]3C2)c1Cl` [Example 448] it was < 0.1 µM.
With `O=C(O)c1ccn(C(=O)N2CCN(Cc3cccc(Oc4cnccc4C(F)(F)F)c3)CC2)n1` [Example 352, 1-(4-(3-((4-(trifluoromethyl)-pyridin-3-yl)oxy)-benzyl)-piperazine-1-carbonyl)-1H-pyrazole-3-carboxylic acid], the IC50 is < 0.1 µM.
For `Cc1cc(-c2ccccc2)ccc1CN1CCN(C(=O)n2ccc(C(=O)O)n2)C(C)C1` (centres unmarked) [Example 89, 1-(2-methyl-4-((3-methyl-[1,1′-biphenyl]-4-yl)methyl)-piperazine-1-carbonyl)-1H-pyrazole-3-carboxylic acid] the value was < 0.1 µM; for `CC(C)(O)COc1cccc(CO[C@H]2C[C@@H]3CN(C(=O)n4ccc(C(=O)O)n4)C[C@@H]3C2)c1Cl` [Example 38, 1-(trans-5-((2-Chloro-3-(2-hydroxy-2-methylpropoxy)benzyl)oxy)octahydrocyclopenta[c]pyrrole-2-carbonyl)-1H-pyrazole-3-carboxylic Acid], < 0.1 µM.
With `O=C(O)c1ccn(C(=O)N2C[C@H]3C[C@H](OCc4ccc(Cl)c(-c5nccs5)c4)C[C@H]3C2)n1` [Example 345, 1-(trans-5-((4-chloro-3-(thiazol-2-yl)benzyl)oxy)-octahydrocyclopenta-[c]pyrrole-2-carbonyl)-1H-pyrazole-3-carboxylic acid], the IC50 is < 0.1 µM.
Turning to `C[C@H]1CC[C@H](C)N1c1cc(C(F)(F)F)ccc1CN1CCN(C(=O)n2ccc(C(=O)O)n2)CC1` [Example 360, 1-(4-(2-((2S,5S)-2,5-dimethylpyrrolidin-1-yl)-4-(trifluoromethyl)-benzyl)piperazine-1-carbonyl)-1H-pyrazole-3-carboxylic acid], the IC50 was < 0.1 µM.
For the compound `O=C(O)c1ccn(C(=O)N2CCN(Cc3cc(Cl)cc(Oc4ccc(Cl)cc4)c3)CC2)n1` [Example 19, 1-(4-(3-Chloro-5-(4-chlorophenoxy)benzyl)piperazine-1-carbonyl)-1H-pyrazole-3-carboxylic Acid], the IC50 is < 0.1 µM.
In the case of `O=C(O)c1ccn(C(=O)N2CCC3(CCN(Cc4cc(Cl)ccc4OC(F)(F)F)C3)CC2)n1` [Example 371, 1-(2-(5-chloro-2-(trifluoromethoxy)-benzyl)-2,8-diazaspiro[4.5]-decane-8-carbonyl)-1H-pyrazole-3-carboxylic acid] it was < 0.1 µM; in that of `O=C(O)c1ccn(C(=O)N2CCC3(CCN(Cc4cc(Cl)ccc4C(F)(F)F)C3)CC2)n1` [Example 43, 1-(2-(5-chloro-2-(trifluoromethyl)-benzyl)-2,8-diazaspiro[4.5]-decane-8-carbonyl)-1H-pyrazole-3-carboxylic acid], < 0.1 µM; in that of `NC(=O)c1ccn(C(=O)N2CCC3(CCN(Cc4ccc(N5CCOCC5)cc4C(F)(F)F)C3)C2)n1` (centres unmarked) [Example 436, 1-(7-(4-morpholino-2-(trifluoromethyl)-benzyl)-2,7-diazaspiro-[4.4]nonane-2-carbonyl)-1H-pyrazole-3-carboxamide], < 0.1 µM.
For `C[C@H]1CN(Cc2cccc(Oc3cc(C(F)(F)F)ccn3)c2)CCN1C(=O)n1ccc(C(=O)O)n1` [Example 373, (S)-1-(2-methyl-4-(3-((4-(trifluoromethyl)-pyridin-2-yl)oxy)benzyl)-piperazine-1-carbonyl)-1H-pyrazole-3-carboxylic acid] the value was < 0.1 µM; for `O=C(O)c1ccn(C(=O)N2CCC(OCc3cc(Cl)cc(C(F)(F)F)c3)CC2)n1` [Example 275, 1-(4-((3-chloro-5-(trifluoromethyl)-benzyl)oxy)-piperidine-1-carbonyl)-1H-pyrazole-3-carboxylic acid], < 0.1 µM; for `O=C(O)c1nn(C(=O)N2CC3CN(Cc4cc(Cl)ccc4Cl)CC3C2)cc1Cl` (centres unmarked) [Example 136, 4-chloro-1-(5-(2,5-dichlorobenzyl)-octahydropyrrolo-[3,4-c]pyrrole-2-carbonyl)-1H-pyrazole-3-carboxylic acid], < 0.1 µM.
For `Cc1cn(C(=O)N2CCC(C)(N(C)Cc3ccc(C(F)(F)F)cc3N3CCCC3)CC2)nc1C(=O)O` [Example 398] the value was < 0.1 µM.
On to `CNC(=O)c1ccn(C(=O)N2CCC3(CCN(Cc4cc(Cl)ccc4Cl)C3)C2)n1` (centres unmarked) [Example 428, 1-(7-(2,5-dichlorobenzyl)-2,7-diazaspiro[4.4]-nonane-2-carbonyl)-N-methyl-1H-pyrazole-3-carboxamide], for which the IC50 was < 0.1 µM.
In the case of `CC(C)(O)CN(Cc1cccc(C(F)(F)F)c1)C1CCN(C(=O)n2ccc(C(N)=O)n2)CC1` [Example 36, 1-(4-((2-Hydroxy-2-methylpropyl)(3-(trifluoromethyl)benzyl)amino)piperidine-1-carbonyl)-1H-pyrazole-3-carboxamide] it was < 0.1 µM; in that of `O=C(O)c1ccn(C(=O)N2C[C@H]3C[C@H](Oc4ccccc4C4CCOCC4)C[C@H]3C2)n1` [Example 268, 1-(trans-5-(2-(tetrahydro-2H-pyran-4-yl)phenoxy)-octahydrocyclopenta-[c]pyrrole-2-carbonyl)-1H-pyrazole-3-carboxylic acid], < 0.1 µM; in that of `NC(=O)c1ccn(C(=O)N2CCC3(CCN(Cc4cccc(C(F)(F)F)c4)C3)C2)n1` (centres unmarked) [Example 429, 1-(7-(3-(trifluoromethyl)-benzyl)-2,7-diazaspiro[4.4]-nonane-2-carbonyl)-1H-pyrazole-3-carboxamide], < 0.1 µM.
In the case of `CN(Cc1cc(Cl)ccc1C(F)(F)F)CC1CCN(C(=O)n2ccc(C(=O)O)n2)CC1` [Example 209, 1-(4-(((5-chloro-2-(trifluoromethyl)-benzyl)-(methyl)amino)-methyl)piperidine-1-carbonyl)-1H-pyrazole-3-carboxylic acid] it was < 0.1 µM; in that of `CN(Cc1cccc(C(F)(F)F)c1)C1(C)CCN(C(=O)n2ccc(C(N)=O)n2)CC1` [Example 258], < 0.1 µM.
In the case of `C[C@@H]1CN(Cc2ccc(-c3ccccc3)cc2C(F)(F)F)CCN1C(=O)n1ccc(C(=O)O)n1` [Example 351, (R)-1-(2-methyl-4-((3-(trifluoromethyl)-[1,1′-biphenyl]-4-yl)methyl)-piperazine-1-carbonyl)-1H-pyrazole-3-carboxylic acid] it was < 0.1 µM.
